Values of other authors, collected in patent US11981760B2, “Therapeutic hydrogels and contact lens for corneal melting” (THE REGENTS OF THE UNIVERSITY OF COLORADO, priority 2018, dated 2024).

SMILES: c1ccc(CNCc2ccccn2)nc1 [DPA, dipicolylamine]
- association with other metal ions (Ca^2+, Mg^2+, Na^+ and K^+): does not associate strongly
- Kd (five-membered chelate ring, read-out: Kd of Zn^2+ complexation): ~0.01 nM
